# Results as given in patent publication US10759813B2, “Neprilysin inhibitors” (THERAVANCE BIOPHARMA R&D IP, LLC, priority 2010, dated 2020).
# Target: human neprilysin (EC 3.4.24.11; NEP) (Homo sapiens (Human), UniProt P08473)
# Test: In vitro enzyme inhibition assay at human NEP (fluorogenic peptide substrate)
# Type: biochemical
# Details: pKi values at human NEP, recombinant human NEP
# Method in brief: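 pKi derived from apparent Ki fitted as v=v0/[1+(I/K′)] to Ex320/Em405 fluorescence. Compounds (pM to 10 μM) sat with recombinant human enzyme 30 min at 37 °C before 10 μM fluorogenic Mca peptide was added in HEPES pH 7.5 buffer with 10 μM ZnSO4; 20 min reaction, acetic acid quench.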
# Chain of human neprilysin (EC 3.4.24.11; NEP) (P08473 52-750): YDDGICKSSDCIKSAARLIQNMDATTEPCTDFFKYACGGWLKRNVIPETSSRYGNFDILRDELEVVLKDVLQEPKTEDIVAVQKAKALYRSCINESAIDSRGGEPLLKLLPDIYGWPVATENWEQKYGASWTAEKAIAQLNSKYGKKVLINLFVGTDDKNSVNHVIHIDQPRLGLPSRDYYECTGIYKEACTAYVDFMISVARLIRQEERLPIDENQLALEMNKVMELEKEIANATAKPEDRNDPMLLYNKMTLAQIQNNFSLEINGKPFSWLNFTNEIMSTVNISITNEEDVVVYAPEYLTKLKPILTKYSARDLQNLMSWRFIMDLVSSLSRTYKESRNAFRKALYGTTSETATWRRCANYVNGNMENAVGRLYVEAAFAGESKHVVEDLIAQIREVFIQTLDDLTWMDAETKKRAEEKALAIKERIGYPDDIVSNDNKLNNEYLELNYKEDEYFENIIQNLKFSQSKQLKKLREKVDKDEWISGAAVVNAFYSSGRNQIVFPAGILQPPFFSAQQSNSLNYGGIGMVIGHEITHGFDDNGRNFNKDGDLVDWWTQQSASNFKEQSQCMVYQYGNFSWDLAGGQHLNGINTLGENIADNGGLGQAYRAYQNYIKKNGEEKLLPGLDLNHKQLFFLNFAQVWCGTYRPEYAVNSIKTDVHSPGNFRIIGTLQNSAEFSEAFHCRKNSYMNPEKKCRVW
Compound,pKi,Ki [nM]
"O=C(N[C@H](Cc1ccc(-c2ccccc2)cc1)C[C@@H](O)C(=O)O)c1cnc(O)nc1 [Example 6-B, (2R,4R)-5-Biphenyl-4-yl-2-hydroxy-4-[(2-hydroxypyrimidine-5-carbonyl)amino]pentanoic Acid]",≥9.0,–
"O=C(N[C@H](Cc1ccc(-c2ccccc2)cc1)CC(O)C(=O)O)c1cc(-c2ccco2)[nH]n1 (stereo partly drawn) [Example 15-37, (R)-5-Biphenyl-4-yl-4-[(5-furan-2-yl-1H-pyrazole-3-carbonyl)amino]-2-hydroxy-pentanoic acid]",–,1.26 to 10
"COCCN(C)C(=O)c1cc(C(=O)N[C@H](Cc2ccc(-c3ccccc3)cc2)C[C@H](O)C(=O)O)[nH]n1 [Example 3-C, (2S,4R)-5-Biphenyl-4-yl-2-hydroxy-4-({5-[(2-methoxyethyl)methylcarbamoyl]-2H-pyrazole-3-carbonyl}amino)pentanoic Acid]",–,1.26 to 10
"CCOC(=O)Nc1cc(C(=O)N[C@H](Cc2ccc(-c3ccccc3)cc2)CC(O)C(=O)O)[nH]n1 (stereo partly drawn) [Example 15-93, (R)-5-Biphenyl-4-yl-4-[(5-ethoxycarbonylamino-2H-pyrazole-3-carbonyl)-amino]-2-hydroxy-pentanoic acid]",–,12.6 to 100
"O=C1CCC(C(=O)N[C@H](Cc2ccc(-c3ccccc3)cc2)CC(O)C(=O)O)=NN1 (stereo partly drawn) [Example 13-6, (R)-5-Biphenyl-4-yl-2-hydroxy-4-[(6-oxo-1,4,5,6-tetrahydro-pyridazine-3-carbonyl)-amino]-pentanoic acid]",–,12.6 to 100
"O=C(N[C@H](Cc1ccc(-c2ccccc2)cc1)C[C@@H](O)C(=O)O)c1cc(-c2cccc(Cl)c2)[nH]n1 [Example 15-25, (2R,4R)-5-Biphenyl-4-yl-4-{[5-(3-chlorophenyl)-1H-pyrazole-3-carbonyl]-amino}-2-hydroxy-pentanoic acid]",≥9.0,–
"O=C(NC1CC1)c1cc(C(=O)N[C@H](Cc2ccc(-c3ccccc3)cc2)C[C@@H](O)C(=O)O)[nH]n1 [Example 15-57, (2R,4R)-5-Biphenyl-4-yl-4-[(5-cyclopropylcarbamoyl-2H-pyrazole-3-carbonyl)-amino]-2-hydroxypentanoic acid]",≥9.0,–
"Cn1nc(C(=O)N[C@H](Cc2ccc(-c3ccccc3)cc2)CC(O)C(=O)O)cc1-c1ccccc1 (stereo partly drawn) [Example 15-34, (R)-5-Biphenyl-4-yl-2-hydroxy-4-[(1-methyl-5-phenyl-1H-pyrazole-3-carbonyl)amino]-pentanoic acid]",–,1.26 to 10
"O=C(N[C@H](Cc1ccc(-c2ccccc2)cc1)C[C@@H](O)C(=O)O)c1cc(-c2ccccn2)n[nH]1 [Example 15-102, (2R,4R)-5-Biphenyl-4-yl-2-hydroxy-4-[(5-pyridin-2-yl-2H-pyrazole-3-carbonyl)-amino]-pentanoic acid]",–,≤ 1
"O=C(N[C@H](Cc1ccc(-c2ccccc2)cc1)C[C@@H](O)C(=O)O)c1cc2n(n1)COc1ccccc1-2 [Example 16-6, (2R,4R)-5-Biphenyl-4-yl-2-hydroxy-4-[(5-oxa-3,3a-diaza-cyclopenta[a]naphthalene-2-carbonyl)-amino]-pentanoic acid]",–,1.26 to 10
"O=C(N[C@H](Cc1ccc(-c2ccccc2)cc1)CC(O)C(=O)O)c1cc(-c2ccccc2Cl)[nH]n1 (stereo partly drawn) [Example 15-24, (R)-5-Biphenyl-4-yl-4-{[5-(2-chlorophenyl)-1H-pyrazole-3-carbonyl]amino}-2-hydroxy-pentanoic acid]",–,1.26 to 10
"CC(=O)OCOn1nncc1C(=O)N[C@H](Cc1ccc(-c2cc(Cl)ccc2F)cc1)C[C@@H](O)C(=O)O [Example 19-18, (2R,4R)-4-[(3-Acetoxymethoxy-3H-[1,2,3]triazole-4-carbonyl)-amino]-5-(5′-chloro-2′-fluoro-biphenyl-4-yl)-2-hydroxy-pentanoic acid]",≥9.0,–
"O=C(N[C@H](Cc1ccc(-c2ccccc2)cc1)C[C@H](O)C(=O)O)c1cc(C(=O)O)[nH]n1 [Example 2-C, 5-((1R,3S)-1-Biphenyl-4-ylmethyl-3-carboxy-3-hydroxypropylcarbamoyl)-2H-pyrazole-3-carboxylic Acid]",≥9.0,–
"Cc1cc(C(=O)N[C@H](Cc2ccc(-c3ccccc3)cc2)CC(O)C(=O)O)n[nH]1 (stereo partly drawn) [Example 15-19, (R)-5-Biphenyl-4-yl-2-hydroxy-4-[(5-methyl-1H-pyrazole-3-carbonyl)amino]pentanoic acid]",–,12.6 to 100
"O=C(N[C@H](Cc1ccc(-c2ccccc2)cc1)C[C@@H](O)C(=O)O)c1cc(CO)[nH]n1 [Example 15-3, (2R,4R)-5-Biphenyl-4-yl-2-hydroxy-4-[(5-hydroxymethyl-1H-pyrazole-3-carbonyl)-amino]-pentanoic acid]",–,1.26 to 10
"O=C(N[C@H](Cc1ccc(-c2ccccc2)cc1)CC(O)C(=O)O)c1cc(C(=O)O)n(Cc2ccc(Cl)cc2F)n1 (stereo partly drawn) [Example 15-13, 5-((R)-1-Biphenyl-4-ylmethyl-3-carboxy-3-hydroxy-propylcarbamoyl)-2-(4-chloro-2-fluorobenzyl)-2H-pyrazole-3-carboxylic acid]",–,1.26 to 10
"O=C(N[C@H](Cc1ccc(-c2ccccc2)cc1)C[C@@H](O)C(=O)O)c1cc2n(n1)C[C@@H](O)COc1ccccc1-2 [Example 16-5, (2R,4R)-5-Biphenyl-4-yl-2-hydroxy-4-[((R)-8-hydroxy-10-oxa-5,6-diaza-tricyclo[9.4.0.02,6]pentadeca-1(15),2,4,11,13-pentaene-4-carbonyl)-amino]-pentanoic acid]",–,12.6 to 100
"Cn1cc(-c2cc(C(=O)N[C@H](Cc3ccc(-c4ccccc4)cc3)CC(O)C(=O)O)n[nH]2)cn1 (stereo partly drawn) [Example 15-23, (R)-5-Biphenyl-4-yl-2-hydroxy-4-[(1′-methyl-2H, 1′H-[3,4′]bipyrazolyl-5-carbonyl)amino]-pentanoic acid]",–,12.6 to 100
"O=C(N[C@H](Cc1ccc(-c2ccccc2)cc1)CC(O)C(=O)O)c1ccc(C(=O)O)nc1 (stereo partly drawn) [Example 13-8, 5-((R)-1-Biphenyl-4-ylmethyl-3-carboxy-3-hydroxypropylcarbamoyl)-pyridine-2-carboxylic acid]",–,12.6 to 100
"O=C(N[C@H](Cc1ccc(-c2ccccc2)cc1)CC(O)C(=O)O)c1cc(C(=O)O)n(Cc2ccc(Cl)c(SC(F)(F)F)c2)n1 (stereo partly drawn) [Example 15-6, 5-((R)-1-Biphenyl-4-ylmethyl-3-carboxy-3-hydroxypropylcarbamoyl)-2-(4-chloro-3-trifluoromethylsulfanyl-benzyl)-2H-pyrazole-3-carboxylic acid]",–,12.6 to 100
"O=C(N[C@H](Cc1ccc(-c2ccccc2)cc1)C[C@@H](O)C(=O)O)c1nc(Cl)n[nH]1 [Example 10-12, (2R,4R)-5-Biphenyl-4-yl-4-[(5-chloro-2H-[1,2,4]triazole-3-carbonyl)amino]-2-hydroxypentanoic acid]",–,1.26 to 10
"CC(=O)c1cc(C(=O)N[C@H](Cc2ccc(-c3ccccc3)cc2)C[C@@H](O)C(N)=O)[nH]n1 [Example 15-108, 5-Acetyl-2H-pyrazole-3-carboxylic acid ((1R,3R)-1-biphenyl-4-ylmethyl-3-carbamoyl-3-hydroxypropyl)amide]",–,12.6 to 100
"O=C(O)c1ccc(C(=O)N[C@H](Cc2ccc(-c3ccccc3)cc2)CC(O)C(=O)O)o1 (stereo partly drawn) [Example 12-1, 5-((R)-1-Biphenyl-4-ylmethyl-3-carboxy-3-hydroxypropylcarbamoyl)furan-2-carboxylic acid]",–,1.26 to 10
"O=C(N[C@H](Cc1ccc(-c2ccccc2)cc1)C[C@@H](O)C(=O)O)c1cc(C(=O)O)[nH]n1 [Example 2-D, 5-((1R,3R)-1-Biphenyl-4-ylmethyl-3-carboxy-3-hydroxypropylcarbamoyl)-2H-pyrazole-3-carboxylic Acid]",≥9.0,–

# More lines, now with the values ahead:
pKi,Ki [nM],Compound
≥9.0,–,"O=C(N[C@H](Cc1ccc(-c2cc(Cl)ccc2F)cc1)C[C@@H](O)C(=O)O)c1cn(O)nn1 [Example 19-6, (2R,4R)-5-(5′-Chloro-2′-fluorobiphenyl-4-yl)-2-hydroxy-4[(1-hydroxy-1H-[1,2,3]triazole-4-carbonyl)-amino]-pentanoic acid]"
≥9.0,–,"COc1ccccc1C(=O)Nc1cc(C(=O)N[C@H](Cc2ccc(-c3cccc(Cl)c3)cc2)C[C@@H](O)C(=O)O)[nH]n1 [Example 18-31, (2R,4R)-5-(3′-Chloro-biphenyl-4-yl)-2-hydroxy-4-{[5-(2-methoxy-benzoylamino)-2H-pyrazole-3-carbonyl]-amino}-pentanoic acid]"
≥9.0,–,"O=C(N[C@H](Cc1ccc(-c2cccc(Cl)c2)cc1)C[C@@H](O)C(=O)O)c1ccc(O)nn1 [Example 18-50, (2R,4R)-5-(3′-Chlorobiphenyl-4-yl)-2-hydroxy-4-[(6-hydroxy-pyridazine-3-carbonyl)-amino]-pentanoic acid]"
≥9.0,–,"O=C(N[C@H](Cc1ccc(-c2cccc(Cl)c2)cc1)C[C@@H](O)C(=O)O)c1cc(-c2ccccc2O)n[nH]1 [Example 18-17, (2R,4R)-5-(3′-Chlorobiphenyl-4-yl)-2-hydroxy-4-{[5-(2-hydroxy-phenyl)-2H-pyrazole-3-carbonyl]-amino}-pentanoic acid]"
≥9.0,–,"O=C(N[C@H](Cc1ccc(-c2cccc(Cl)c2)cc1)C[C@@H](O)C(=O)O)c1cc(NC(=O)c2ccccc2Cl)n[nH]1 [Example 18-27, (2R,4R)-4-{[5-(2-Chlorobenzoylamino)-2H-pyrazole-3-carbonyl]-amino}-5-(3′-chlorobiphenyl-4-yl)-2-hydroxy-pentanoic acid]"
≥9.0,–,"O=C(N[C@H](Cc1ccc(-c2cc(Cl)ccc2F)cc1)C[C@@H](O)C(=O)O)c1nn(-c2ccccc2)c(=O)[nH]1 [Example 19-20, (2R,4R)-5-(5′-Chloro-2′-fluoro-biphenyl-4-yl)-2-hydroxy-4-[(5-oxo-1-phenyl-4,5-dihydro-1H-[1,2,4]triazole-3-carbonyl)-amino]-pentanoic acid]"
≥9.0,–,"O=C(N[C@H](Cc1ccc(-c2cccc(Cl)c2)cc1)C[C@@H](O)C(=O)O)c1nn(-c2ccccc2)c(=O)[nH]1 [Example 18-47, (2R,4R)-5-(3′-Chlorobiphenyl-4-yl)-2-hydroxy-4-[(5-oxo-1-phenyl-4,5-dihydro-1H-[1,2,4]triazole-3-carbonyl)-amino]-pentanoic acid]"
